Numbered stars: 1 amine (or outer) side, 2 acyl side, 3 side chain; on linkers, the order of the positions; unused ones are H or OH. Square brackets hold non-standard residues; d marks the D form. Peptide text beside a SMILES is read from it. X1 = CCCC(=S)NCCCC[C@H](N[*:1])C(=O)[*:2]; Abu = CC[C@H](N)C(=O)O
What was measured:
MCF-7 cells = experiment: Western blot of α-tubulin K40 acetylation in MCF-7 cells (SIRT2 inhibition in cells); assay type: cell-based, human; settings: 24 hours; for increase in acetylation level compared to S2P04 in vivo (in cells): cell line not given, cell cultures 50 μM; for α-tubulin acetylation (lysine 40): MCF-7 cells, 50 μM, versus vehicle control (0.25% DMF)
Method: (§1) Finally, Applicant tested the ability of S2P04, a selected peptide with intermediate potency, to inhibit SIRT2 in human embryonic kidney (HEK 293T) and breast cancer cells (MCF-7). […] Following incubation with the inhibitor, Applicant measured the acetylation level of lysine 40 of α-tubulin, a known deacetylation substrate of SIRT2.
MCF-7 (HTB-22) and HEK 293T (CRL-11268) cells purchased from American Type Culture Collection were grown in Dulbecco's Modified Eagle Medium (Invitrogen) containing 10% fetal bovine serum (Invitrogen) at 37° C. in an atmosphere of 5% CO2. Cells were seeded in a 6-well plate (Falcon 353046) at 5×10^5 viable cells/well, and grown for 24-48 hours to 60-70% confluence. […] After incubating with the inhibitors for 24 hours, the media was removed and the cells were washed twice with ice-cold PBS (Invitrogen). Cells were lysed on ice for 30 minutes in 100 μL of buffer containing 25 mM Tris pH 7.4, 150 mM NaCl, 10% glycerol, 4 mM MgCl2, 0.2 mM DTT, 1% NP-40, 25 mM nicotinamide, 5 μM trichostatin A, and 1:100 dilution of protease inhibitor cocktail (Sigma-Aldrich). The lysates were clarified by centrifugation, quantified by BCA assay (Pierce), and aliquots were stored at −80° C. Cell lysates (15 or 20 μg) were resolved by SDS-PAGE under denaturing conditions on a 12% acrylamide gel and then transferred to a 0.2 μm nitrocellulose membrane (Bio-Rad). α-tubulin acetylation (K40) and total α-tubulin were probed with primary antibody clones 6-11B-1, and B-5-1-2, respectively, which were purchased from Sigma-Aldrich (1:2,000 dilution). Primary antibodies were probed with HRP-conjugated goat anti-mouse IgG (Jackson ImmunoResearch Laboratories, Inc., 1:10,000 dilution). Chemiluminescence signals were generated with the SuperSignal™ […] Chemiluminescent substrate (ThermoFisher Scientific) and visualized with a Bio-Rad ChemiDoc XRS+ imaging system.

SIRT3 = molecular target: T1, SIRT3 (Homo sapiens, UniProt Q9NTG7); experiment: Sirtuin inhibition assay with fluorogenic universal sirtuin substrate (SIRT3); assay type: biochemical; settings: selectivity SIRT2 over SIRT3
T1 sequence (Q9NTG7 1-399): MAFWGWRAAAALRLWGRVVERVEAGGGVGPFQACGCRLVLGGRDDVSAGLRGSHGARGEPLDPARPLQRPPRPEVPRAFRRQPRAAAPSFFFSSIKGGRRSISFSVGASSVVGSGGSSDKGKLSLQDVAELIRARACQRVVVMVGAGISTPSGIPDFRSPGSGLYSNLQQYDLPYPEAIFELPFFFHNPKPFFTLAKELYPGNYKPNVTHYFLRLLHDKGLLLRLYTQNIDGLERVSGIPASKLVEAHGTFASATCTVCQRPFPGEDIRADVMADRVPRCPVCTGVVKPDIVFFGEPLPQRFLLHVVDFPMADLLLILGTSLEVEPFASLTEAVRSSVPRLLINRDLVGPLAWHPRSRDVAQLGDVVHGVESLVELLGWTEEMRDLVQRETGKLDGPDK
Method: Cell pellets were resuspended in 50 mL of lysis buffer (50 mM Tris pH 7.4, 150 mM NaCl, 0.1 mM PMSF, 1% Triton X-100) and incubated in the presence of 1 mg·mL^−1 of lysozyme for 30 minutes on ice. Following incubation, the resuspension was sonicated twice (1 s on 1 s off, 1 min total, 60% output) and clarified by centrifugation. To the clarified supernatant was added 3 mL of a 50% slurry of immobilized glutathione resin (Genscript) and the mixture was incubated at 4° C. for 30 minutes with end-over-end rotation. After 30 minutes the mixture was filtered through a disposable column, and the resin was washed with 50 mL of lysis buffer containing 0.1% Triton X-100. […] Enzyme concentration was determined from the absorbance at 280 nm using the calculated extinction coefficient of 80,790 M^−1·cm^−1.
Inhibition assays for SIRT1-3 were performed using a recently reported fluorogenic, universal sirtuin substrate (JPT Peptide Technologies, GmbH). […] Following incubation, the reaction was started with the addition of the substrate (5 μM) and product formation was monitored by measuring the fluorescence intensity every 20 seconds for 5 minutes (SIRT2) or 30 minutes (SIRT1 and SIRT3) in a BioTek Synergy H1 microplate reader at λEx=320 nm, λEm=408 nm (gain=130, read height=7 mm). […]

SIRT1 = molecular target: T2, SIRT1 (Homo sapiens, UniProt Q96EB6); experiment: Sirtuin inhibition assay with fluorogenic universal sirtuin substrate (SIRT1); assay type: biochemical; settings: selectivity SIRT2 over SIRT1
T2 sequence (Q96EB6 1-747): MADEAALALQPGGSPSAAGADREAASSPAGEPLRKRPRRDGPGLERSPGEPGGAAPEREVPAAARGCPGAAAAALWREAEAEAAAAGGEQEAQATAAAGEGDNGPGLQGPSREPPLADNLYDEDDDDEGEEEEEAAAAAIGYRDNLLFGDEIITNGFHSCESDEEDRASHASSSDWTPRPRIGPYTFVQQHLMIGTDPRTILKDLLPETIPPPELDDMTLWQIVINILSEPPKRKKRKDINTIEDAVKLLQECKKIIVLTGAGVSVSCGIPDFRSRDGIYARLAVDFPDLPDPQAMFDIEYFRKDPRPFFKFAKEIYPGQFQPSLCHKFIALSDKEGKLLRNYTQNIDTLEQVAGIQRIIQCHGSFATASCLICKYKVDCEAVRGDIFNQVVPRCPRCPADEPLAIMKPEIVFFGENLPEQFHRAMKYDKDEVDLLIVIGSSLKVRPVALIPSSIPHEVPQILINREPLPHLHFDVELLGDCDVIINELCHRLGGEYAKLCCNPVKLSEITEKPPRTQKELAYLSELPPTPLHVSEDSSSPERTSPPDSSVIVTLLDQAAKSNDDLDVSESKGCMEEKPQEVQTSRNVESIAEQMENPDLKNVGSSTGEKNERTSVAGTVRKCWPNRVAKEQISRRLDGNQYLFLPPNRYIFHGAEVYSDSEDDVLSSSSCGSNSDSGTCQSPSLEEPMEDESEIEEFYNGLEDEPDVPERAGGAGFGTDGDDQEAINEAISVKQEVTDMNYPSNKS
Method: Cell pellets were resuspended in 50 mL of lysis buffer (50 mM Tris pH 8.0, 250 mM NaCl, 10 mM imidazole, 0.1 mM phenylmethanesulfonyl fluoride (PMSF), 1% Triton X-100) and incubated with 1 mg·mL^−1 lysozyme (chicken egg white) for 30 minutes on ice. Following incubation, the resuspension was sonicated twice (1 s on, 1 s off, 1 min total, 60% output) and clarified by centrifugation. […] After 30 minutes, the mixture was filtered through a disposable column and the resin was washed with 40 mL of lysis buffer containing 0.1% Triton X-100, followed by 40 mL of lysis buffer without Triton X-100. […] Enzyme concentration was determined from the absorbance at 280 nm using the calculated extinction coefficient of 40,340 M^−1·cm^−1.
Inhibition assays for SIRT1-3 were performed using a recently reported fluorogenic, universal sirtuin substrate (JPT Peptide Technologies, GmbH). […] Following incubation, the reaction was started with the addition of the substrate (5 μM) and product formation was monitored by measuring the fluorescence intensity every 20 seconds for 5 minutes (SIRT2) or 30 minutes (SIRT1 and SIRT3) in a BioTek Synergy H1 microplate reader at λEx=320 nm, λEm=408 nm (gain=130, read height=7 mm). […] IC50 values were determined by nonlinear regression of the plot of normalized initial rate versus inhibitor concentration using GraphPad Prism.

SIRT2 = molecular target: T3, SIRT2 (Homo sapiens, UniProt Q8IXJ6); experiment: Sirtuin inhibition assay with fluorogenic universal sirtuin substrate (SIRT2); assay type: biochemical; settings: for IC50: inhibition of SIRT2, mean ± standard deviation of two independent experiments
T3 sequence (Q8IXJ6 1-389): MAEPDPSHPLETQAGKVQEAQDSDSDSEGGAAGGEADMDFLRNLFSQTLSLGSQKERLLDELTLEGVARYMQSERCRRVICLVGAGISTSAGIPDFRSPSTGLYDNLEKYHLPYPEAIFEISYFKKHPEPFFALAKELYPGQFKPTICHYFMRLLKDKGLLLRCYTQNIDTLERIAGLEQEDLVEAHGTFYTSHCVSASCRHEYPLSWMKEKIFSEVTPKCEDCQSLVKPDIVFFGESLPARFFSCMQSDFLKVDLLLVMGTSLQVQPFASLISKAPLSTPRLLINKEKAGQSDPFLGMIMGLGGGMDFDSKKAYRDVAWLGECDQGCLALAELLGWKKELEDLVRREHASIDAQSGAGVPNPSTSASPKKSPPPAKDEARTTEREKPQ
Method: For inhibition assays, the eluted protein was loaded onto a HiPrep 26/10 desalting column (GE Healthcare) that had been pre-equilibrated with Source 15Q buffer A (20 mM Tris pH 8.0, 50 mM NaCl, 0.2 mM DTT, 10% glycerol). The desalted protein was concentrated by ultrafiltration to 1 mL (10 kDa MWCO) and applied to a 10 mL Source 15Q column (GE Healthcare) pre-equilibrated with Source 15Q buffer A. The column was washed with 3 CV (2 mL·min^−1) of Source 15Q buffer A and then eluted with a linear gradient from 0-60% Source 15Q buffer B (20 mM Tris pH 8.0, 1 M NaCl, 0.2 mM DTT, 10% glycerol; 1 mL·min^−1) over 5 CV. The fractions containing pure SIRT2 were concentrated and stored at −80° C. Enzyme concentration was determined from the absorbance at 280 nm using the calculated extinction coefficient of 32,470 M^−1·cm^−1.
Inhibition assays for SIRT1-3 were performed using a recently reported fluorogenic, universal sirtuin substrate (JPT Peptide Technologies, GmbH). The inhibition reactions were performed in 50 μL volumes at 37° C. in black, half-area, 96-well plates. The sirtuin enzyme (0.25 μM) was pre-incubated with different concentrations of the synthetic peptides (0.0064-50 μM for SIRT1 and SIRT2, 0.5-100 μM for SIRT3) or TB (0.16-150 μM for SIRT1-3) and 1 mM NAD^+ in assay buffer (20 mM Tris pH 7.8, 150 mM NaCl, 5 mM MgCl2, 1 mM DTT) for 15 minutes. Following incubation, the reaction was started with the addition of the substrate (5 μM) and product formation was monitored by measuring the fluorescence intensity every 20 seconds for 5 minutes (SIRT2) or 30 minutes (SIRT1 and SIRT3) in a BioTek Synergy H1 microplate reader at λEx=320 nm, λEm=408 nm (gain=130, read height=7 mm). Initial rates of product formation were determined by linear regression of the plot of fluorescence intensity versus time and normalized relative to 0% activity (max inhibitor) and 100% activity (no inhibitor) controls. IC50 values were determined by nonlinear regression of the plot of normalized initial rate versus inhibitor concentration using GraphPad Prism.

HEK 293T cells = experiment: Western blot of α-tubulin K40 acetylation in HEK 293T cells (SIRT2 inhibition in cells); assay type: cell-based, human; settings: 50 μM, 24 hours, versus vehicle control (0.25% DMF)
Method: as §1
MCF-7 (HTB-22) and HEK 293T (CRL-11268) cells purchased from American Type Culture Collection were grown in Dulbecco's Modified Eagle Medium (Invitrogen) containing 10% fetal bovine serum (Invitrogen) at 37° C. in an atmosphere of 5% CO2. Cells were seeded in a 6-well plate (Falcon 353046) at 5×10^5 viable cells/well, and grown for 24-48 hours to 60-70% confluence. […] After incubating with the inhibitors for 24 hours, the media was removed and the cells were washed twice with ice-cold PBS (Invitrogen). Cells were lysed on ice for 30 minutes in 100 μL of buffer containing 25 mM Tris pH 7.4, 150 mM NaCl, 10% glycerol, 4 mM MgCl2, 0.2 mM DTT, 1% NP-40, 25 mM nicotinamide, 5 μM trichostatin A, and 1:100 dilution of protease inhibitor cocktail (Sigma-Aldrich). The lysates were clarified by centrifugation, quantified by BCA assay (Pierce), and aliquots were stored at −80° C. […]

Row | SMILES | increase in acetylation level compared to S2P04 in vivo (in cells) (MCF-7 cells) | α-tubulin acetylation (lysine 40) (HEK 293T cells) | α-tubulin acetylation (lysine 40) (MCF-7 cells) | IC50 (SIRT2) [µM] | further results
1 | CCCC(=S)NCCCC[C@H](NC(=O)[C@@H](NC(=O)[C@@H](NC(=O)[C@H](CS)NC(C)=O)[C@@H](C)O)C(C)C)C(=O)N[C@H](C(N)=O)[C@@H](C)CC [Ac-S2P04-5, Ac-CTVXI-NH2] (Ac-CTV[X1]I-NH2) | neither led to a greater increase in acetylation level compared to S2P04 |  |  |  | 
2 | CCCC(=S)NCCCC[C@H](NC(=O)[C@@H](NC(=O)[C@@H](NC(=O)[C@H](CS)NC(=O)[C@@H](N)[C@@H](C)O)[C@@H](C)O)C(C)C)C(=O)N[C@H](C(=O)NCC(N)=O)[C@@H](C)CC [Compound S2P04, NH2-TCTVXIG-NH2] (H-TCTV[X1]IG-NH2) |  | increase in α-tubulin acetylation | increase in α-tubulin acetylation |  | fold more potent inhibition of SIRT2 than SIRT3 (SIRT3): 152 fold; fold more potent inhibition of SIRT2 than SIRT1 (SIRT1): 2.7 fold; fold more potent than TB (SIRT2; for each enzyme (SIRT1, SIRT2, SIRT3)): at least 33 fold
3 | CCCC(=S)NCCCC[C@H](NC(=O)[C@@H](NC(=O)[C@@H](NC(=O)[C@@H](N)CS)[C@@H](C)O)C(C)C)C(=O)N[C@H](C(N)=O)[C@@H](C)CC [Compound S2P04-5] (H-CTV[X1]I-NH2; N-terminus and C-terminus assumed) |  |  |  | 0.136 ± 0.029 | 
4 | CCCC(=S)NCCCC[C@H](NC(=O)[C@@H](NC(=O)[C@@H](NC(=O)[C@@H](N)CC)[C@@H](C)O)C(C)C)C(=O)N[C@H](C(N)=O)[C@@H](C)CC [S2P04(Abu)-5, NH2-ZTVXI-NH2] (H-[Abu]TV[X1]I-NH2) | neither led to a greater increase in acetylation level compared to S2P04 |  |  |  | 
5 | CCCC(=S)NCCCC[C@H](NC(=O)OCc1ccccc1)C(=O)Nc1ccccc1 [TB, reference compound] |  | No increase in α-tubulin acetylation | increase in α-tubulin acetylation compared to the control | 3.11 | 

Reference: patent US20220259585A1, “METHODS OF MAKING AND UTILIZING AMBER-OBLIGATED PHAGE DISPLAY LIBRARIES” (The Texas A&M University System, priority 2019, published 2022)
